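These data come from cells grown in 96-well plates and exposed to compound for 48 hours at five concentrations. At the GI50, growth is halved.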 Active and inactive are the calls of the source. Rule as the data show it: active = GI50 up to about 1.1 µM and inactive = higher.

Holding throughout (assay): DTP human tumour cell line panel, 48 h
Assay [1] deals with TK-10.
Assay [2] deals with LOX IMVI.
The test system of assay [3] is SK-MEL-28.
The test system of assay [4] is OVCAR-4.
Assay [5] deals with OVCAR-8.
Assay [6] relates to SNB-19.
Assay [7] relates to HCC 2998.
Assay [8] concerns HL-60.
For assay [9], the system named is SF-295.
Assay [10] relates to SNB-75.
Assay [11] relates to SK-OV-3.
In assay [12] the test system is 786-0.
Assay [13] deals with HCT-15.
Assay [14] has as its system UACC-62.
In assay [15] the test system is UO-31.
Assay [16] has as its system EKVX.
Assay [17] has as its system OVCAR-3.
Assay [18] has as its system PC-3.
For assay [19], the system named is SK-MEL-2.
Assay [20] relates to CAKI-1.

On to `C1CSCCSCCS1`, for which the GI50 in assay [1], in assay [2], in [3], in assay [4], in assay [5] and in [6] was > 100 µM (inactive) each time. In addition, the GI50 in assay [7], in assay [8], in assay [9], in assay [10], in [11] and in assay [12] was > 100 µM (inactive) throughout. In addition, the GI50 (usually the concentration that inhibits growth by half) in [13] is over 100 µM; in assay [14], > 100 µM (inactive); in assay [15] it was > 100 µM (inactive); in assay [16], > 100 µM (inactive); in [17], > 100 µM (inactive); in assay [18], > 100 µM (inactive).
Consider `Cc1nnc2n(c1=O)CCCN2C`, for which the GI50 in assay [19], in assay [1], in assay [2], in assay [3], in assay [4] and in assay [5] was > 100 µM (inactive) each time. Besides, the GI50 in [6], in [7], in [8], in [9], in assay [10] and in assay [11] was > 100 µM (inactive) in each case. The GI50 in assay [12] is > 100 µM (inactive); in assay [13], over 100 µM; in [14] it was > 100 µM (inactive); in assay [15], > 100 µM (inactive); in [16] it was > 100 µM (inactive); in [17], > 100 µM (inactive). In assay [18], the GI50 is > 100 µM (inactive).
In the case of `COc1cc(C(=O)OCCn2[nH]c(-c3ccc(Cl)cc3)nc2=S)cc(OC)c1OC`, the GI50 in assay [19] was > 100 µM (inactive); in assay [1], 54.3 µM (inactive); in assay [2], 72.4 µM (inactive); in assay [3], 42.7 µM (inactive); in assay [4] it was 95.5 µM (inactive); in [5] it was 90.8 µM (inactive). For the same compound, the GI50 was > 100 µM (inactive) in assay [6]; 56.4 µM (inactive) in assay [7]; 38.9 µM (inactive) in assay [8]; 44.7 µM (inactive) in [9]; 37.7 µM (inactive) in [20]; > 100 µM (inactive) in assay [11]. For the same compound, the GI50 is 62.8 µM (inactive) in [12]; 36 µM in [13]; > 100 µM (inactive) in assay [14]; 1.3 µM (inactive) in assay [15]; 91.6 µM (inactive) in assay [16]; 51.3 µM (inactive) in [17]. Further, the GI50 in assay [18] was > 100 µM (inactive).
Regarding `COc1c2cc(C(C)(C)C)cc1CSCc1cc(C(C)(C)C)cc(c1OC)CCCCC2`, the GI50 in assay [19] was 25.1 µM (inactive); in assay [1], 31.9 µM (inactive); in assay [3], 26.5 µM (inactive); in [5], 28.2 µM (inactive); in assay [6] it was 20.2 µM (inactive); in [7], 29.6 µM (inactive). The GI50 in [8] was > 50 µM (inactive); in assay [9] it was 17 µM (inactive); in assay [10], > 50 µM (inactive); in assay [11], > 50 µM (inactive); in assay [12], > 50 µM (inactive); in assay [13], over 50 µM. In addition, the GI50 in assay [14] was 29.7 µM (inactive); in [15] it was 20.7 µM (inactive); in assay [17], 15.1 µM (inactive); in assay [18] it was 22.4 µM (inactive).
As to `CC(C)C(C)C(O)C(O)C(C)C1CCC2C3COC(=O)C4CC(O)C(O)CC4(C)C3CCC12C` (stereo unspecified), the GI50 was > 100 µM (inactive) in assay [19]; > 100 µM (inactive) in assay [1]; > 100 µM (inactive) in assay [2]; > 100 µM (inactive) in assay [3]; 59 µM (inactive) in assay [4]; 62.8 µM (inactive) in assay [5]. The GI50 in assay [6] is 28.1 µM (inactive); in assay [7], > 100 µM (inactive); in assay [8], > 10 µM (inactive); in [9] it was 78.5 µM (inactive); in [20], 11.7 µM (inactive); in [11], > 100 µM (inactive). The GI50 is > 100 µM (inactive) in [12]; 66.1 µM in assay [13]; > 100 µM (inactive) in assay [14]; 58.1 µM (inactive) in [15]; 43.7 µM (inactive) in assay [16]; 46.9 µM (inactive) in assay [18].
For `COC(=O)/C=C(\S/C(=N\n1cc(C(=O)OC)c(C(=O)OC)c1-c1ccc(C)cc1)c1ccc(C)cc1)C(=O)OC`, the GI50 is 6.12 µM (inactive) in assay [19]; 3.03 µM (inactive) in [1]; 2.84 µM (inactive) in assay [2]; 5.78 µM (inactive) in assay [3]; 1.58 µM (inactive) in assay [4]; 12.9 µM (inactive) in [5]. Besides, the GI50 was 34 µM (inactive) in [6]; 18.7 µM (inactive) in assay [7]; 4.62 µM (inactive) in assay [8]; 32.8 µM (inactive) in assay [9]; 11.5 µM (inactive) in [10]; 32.3 µM (inactive) in [11]. The GI50 in assay [12] was 4.44 µM (inactive); in assay [13] it was 2.28 µM; in assay [14] it was 12 µM (inactive); in [15], 2.52 µM (inactive); in [16] it was 15.7 µM (inactive); in assay [17], 4.67 µM (inactive). Also, the GI50 in assay [18] was 5.28 µM (inactive).
For the compound `O=S(=O)(c1cc(Cl)ccc1Cl)N1CCN(c2ccc(Cl)c(Cl)c2)CC1`, the GI50 in assay [1] was 20.6 µM (inactive); in [2], > 100 µM (inactive); in assay [3], > 100 µM (inactive); in [4] it was 16.1 µM (inactive); in assay [5], 23.3 µM (inactive); in assay [6] it was 14.1 µM (inactive). Also, the GI50 in assay [7] is 62.1 µM (inactive); in [8], > 100 µM (inactive); in assay [9] it was 24.9 µM (inactive); in assay [10] it was 14 µM (inactive); in [20], 22 µM (inactive); in assay [12], 17.9 µM (inactive). Moreover, the GI50 in assay [13] was over 100 µM; in assay [15], 35.8 µM (inactive); in assay [16] it was 32.2 µM (inactive); in assay [17], 14.6 µM (inactive); in assay [18], 99.8 µM (inactive).
`Cc1ccc(S(=O)(=O)NC(=O)NNc2ccc(F)cc2)cc1`: the GI50 in assay [19], in assay [1], in [2], in assay [3], in assay [4] and in [6] was > 100 µM (inactive) in each case. Further, the GI50 in assay [7], in assay [8], in [9], in assay [20], in [11] and in assay [12] was > 100 µM (inactive) throughout. Also, the concentration for 50% growth inhibition (GI50) is over 100 µM in [13]; > 100 µM (inactive) in [14]; > 31.6 µM (inactive) in [15]; > 100 µM (inactive) in [16]; > 100 µM (inactive) in assay [17]; > 100 µM (inactive) in assay [18].
With `O=c1c2cc([N+](=O)[O-])ccc2oc2nc3n(c(=O)c12)CCCS3`, the GI50 in assay [19], in assay [1], in [3], in assay [4], in assay [6] and in [7] was > 100 µM (inactive) throughout. Moreover, the GI50 in [9] is > 100 µM (inactive); in assay [10], 64.9 µM (inactive); in [20], > 100 µM (inactive); in [11], > 100 µM (inactive); in [12], 66.8 µM (inactive); in [13], over 100 µM. Besides, the GI50 in [14], in assay [15], in assay [16], in assay [17] and in assay [18] was > 100 µM (inactive) throughout.
Turning to `COC(=O)C1C(C(=O)OC)C2(OC(c3ccc(Cl)cc3)=CC2=O)C12OC(c1ccc(Cl)cc1)=CC2=O` (stereo unspecified), the GI50 in assay [19] is 24 µM (inactive); in assay [1] it was 22.6 µM (inactive); in assay [2] it was 23.1 µM (inactive); in [3] it was 36.8 µM (inactive); in assay [4], 19.9 µM (inactive); in [6], 43.2 µM (inactive). The GI50 in assay [7] was 18.3 µM (inactive); in [8] it was 2.81 µM (inactive); in assay [9], 22.6 µM (inactive); in assay [20], 22 µM (inactive); in [11], 71.1 µM (inactive); in assay [12], 16.6 µM (inactive). The GI50 in assay [13] was 16.4 µM; in [14] it was 14.6 µM (inactive); in [15] it was 16.6 µM (inactive); in assay [16], 22.3 µM (inactive); in assay [17], 19.2 µM (inactive); in assay [18] it was 21.8 µM (inactive).
As to `Nc1nc(Cl)c(CO)c(NCC2(CO)CC(CCc3ccccc3)C2)n1` (stereo unspecified), the GI50 in assay [1] is 80.2 µM (inactive); in assay [2], 12.5 µM (inactive); in assay [3], 20.4 µM (inactive); in assay [4] it was 14.4 µM (inactive); in assay [5] it was 12.7 µM (inactive); in assay [6], 61.5 µM (inactive). Further, the GI50 in assay [7] was 33.3 µM (inactive); in assay [8] it was 3.4 µM (inactive); in [9], 10.6 µM (inactive); in assay [10], 16.1 µM (inactive); in [20] it was 37.8 µM (inactive); in assay [12] it was 31.8 µM (inactive). Also, the concentration for 50% growth inhibition (GI50) was 20.6 µM in [13]; 17.3 µM (inactive) in assay [15]; 19.2 µM (inactive) in [16]; 18.8 µM (inactive) in [17]; 51.3 µM (inactive) in assay [18].

Source of the values: ChEMBL document CHEMBL1201862, “PubChem BioAssay data set” (2004).
